Paper PMC10030409 (Investigational New Drugs, 2023)

What was measured:
[1] = clinical; conditions: human, in vivo
Description: Patients were asked to determine the time of drug intake. The collected serum and whole peripheral blood samples were stored at − 80 °C until analysis.
Several candidate PopPK models with different structures were compared based on the goodness-of-fit (GOF) plots and the objective function value (OFV) expressed as minus twice log likelihood (−2LL), and the difference in OFV between the two nested models was statistically evaluated using the chi-square test (the decrease in −2LL >3.84, p < 0.05, was considered statistically significant).
Stepwise covariate analysis was performed to evaluate the effect of covariates on clearance and volume of distribution. The significance of the effect was assessed by the −2LL value; decrease in −2LL of >3.84 (p < 0.050) for the forward addition was considered significant. The impact of body weight (BW), albumin (ALB), age (AGE), sex, aspartate aminotransferase (AST), and alanine aminotransferase (ALT) levels on CLparent/F, CLm5/F, and CLm7/F was evaluated. In addition, BW, ALB, AGE, and sex were evaluated on Vparent/F, Vm5/F, and Vm7/F. The covariates were modeled as shown in equation (c) in the power form for continuous covariates, equation (d) with log-transformation for continuous covariates with outliers, and equation (e) for categorical covariates: […]
The candidate PopPK models were evaluated by goodness of fit, ∆−2LL values, η-shrinkage, and relative standard error (RSE%). […] The uncertainty of the parameters was estimated by performing a bootstrap. The original dataset was randomly resampled to generate 1000 samples, and the parameters estimated from the successful runs were compared to those estimated from the original dataset.

[2] = test system: wild-type EGFR; conditions: higher potency; cited from earlier work
[3] = cited from earlier work; for Fraction of metabolite conversion from the parent: fixed in the PopPK model
[4] = in vivo

SMILES	Clearance CL/F (θ1, θ4, θ6) [1] [L/h]	Coefficient of variation for clearance (CL/F) [1] [%]	Inter-occasion variance of clearance (ω^2 CL,IOV) [1]	Potency against wild-type EGFR compared with the parent compound [2] [fold]	Half-life [3] [h]	Fraction of metabolite conversion from the parent [3] [%]	AUC0–24 at steady state, median (IQR) [1]	Association between AUC0–24 and grade ≥ 2 anorexia ([4]; human)	Association between AUC0–24 and grade ≥ 2 increased creatinine ([4]; human)	Association between AUC0–24 and grade ≥ 2 paronychia ([4]; human)	Sensitivity of AUC0–24 cut-off for grade ≥ 2 AEs ([4]; human) [%]	Specificity of AUC0–24 cut-off for grade ≥ 2 AEs ([4]; human) [%]	Area under the ROC curve for predicting grade ≥ 2 AEs using AUC0–24 [4]	Cut-off AUC0–24 to predict grade ≥ 2 AEs [4] [ng·h/mL]	Circulating exposure of active metabolite relative to the parent compound [3] [%]
C=CC(=O)Nc1cc(Nc2nccc(-c3c[nH]c4ccccc34)n2)c(OC)cc1N(C)CCN(C)C [AZ5104]	44.41	35	0.034	15	52.6	25	–	–	–	–	–	–	–	–	–
C=CC(=O)Nc1cc(Nc2nccc(-c3cn(C)c4ccccc34)n2)c(OC)cc1N(C)CCNC [AZ7550]	46.2	27	–	–	72.7	25	367 (275–516) ng/mL*h	significant association	significant association	significant association	49	90	0.651	462	10
